In patent publication EP4803519A1, “NOVEL PRMT5 INHIBITOR AND USE THEREOF” (Shanghai Apeiron Therapeutics Company Limited, priority 2023, dated 2025):

Columns and labels:
Format in all cases: cell-based
[1] = test system: HCT-116 MTAP(-/-)deleted cells; assay: Inhibitory activity on proliferation of HCT-116 MTAP(-/-)deleted cells (Cell-Titer Glo); details: Homo sapiens, 144 h, incubated 6 d, 0-1,000 nM
Method: (§1) Materials and cells: HCT-116 MTAP(-/-)deleted cells were purchased from Kyinno Biotechnology (China); RPMI-1640 medium, and fetal bovine serum were purchased from Thermo Fisher (United States); 384-well plates were purchased from PerkinElmer (United States); Cell-Titer Glo kit was purchased from Promega (United States).
Cell culture: HCT116 MTAP(-/-)deleted cells were cultured with RPMI 1640 medium containing 10% fetal bovine serum at 37°C in 5% carbon dioxide. Only cells in the logarithmic growth phase could be used for the test.
(§2) Test of inhibitory activity on cell proliferation: The Cell-Titer Glo kit was used to test the proliferation inhibitory activity of the compounds on HCT-116 MTAP(-/-)deleted cells. The cell concentration was adjusted, rendering that cells were inoculated into a 384-well plate at 40 µL per well and incubated overnight at 37°C and 5% carbon dioxide. 80 nL of the compound was added into each well to reach a final concentration of 0-1,000 nM (starting concentration 1,000 nM, 2.5-fold dilution, 10 points), and the cell plate with 0.2% DMSO content was incubated at 37°C and 5% carbon dioxide for 6 d. 40 µL of Cell-Titer Glo reagent was added to test cell viability.

HCT-116 wild-type cells = assay: Inhibitory activity on proliferation of HCT-116 wild-type cells (Cell-Titer Glo); details: Homo sapiens, 144 h, incubated 6 d, 0-10,000 nM
Method: as §1, with “wild-type” for “MTAP(-/-)deleted”
Cell culture: HCT-116 wild-type cells were cultured in RPMI-1640 medium containing 10% fetal bovine serum at 37°C and 5% carbon dioxide. Only cells in the logarithmic growth phase could be used for the test.
Test of cell proliferation activity: Cell-Titer Glo kit was used to test the proliferation inhibitory activity of the compound on HCT-116 wild-type cells. The cell concentration was adjusted, rendering that cells were inoculated into a 384-well plate at 40 µL per well and incubated overnight at 37°C and 5% carbon dioxide. 80 nL of the compound was added to each well to reach a final concentration of 0-10,000 nM (starting concentration 10,000 nM, 2.5-fold dilution, 10 points), and the cell plate with 0.2% DMSO content was incubated at 37°C and 5% carbon dioxide for 6 d. 40 µL of Cell-Titer Glo reagent was added to test cell viability.

[2] = test system: LU99 MTAP(-/-)deleted cells; assay: Inhibitory activity on proliferation of LU99 MTAP(-/-)deleted cells (Cell-Titer Glo); details: Homo sapiens, Lu-99, 144 h, incubated 6 d, 0-1,000 nM
Method: (§3) Materials and cells: LU99 MTAP deleted cell line was purchased from Kyinno Biotechnology (China); cell culture medium and fetal bovine serum were purchased from Thermo Fisher Scientific (USA); 384-well plates were purchased from PerkinElmer (USA); Cell-Titer Glo kits were purchased from Promega (USA).
Cell culture: LU99 MTAP(-/-)deleted cells were cultured with medium containing 10% fetal bovine serum at 37°C in 5% carbon dioxide. Only cells in the logarithmic growth phase could be used for the test.
as §2, with “on LU99” for “on HCT-116”, “dioxide. 40” for “dioxide. 80”, “added to” for “added into”

[3] = test system: LU99 MTAP overexpressing cells; assay: Inhibitory activity on proliferation of LU99 MTAP overexpressing cells (Cell-Titer Glo); details: Homo sapiens, Lu-99, 144 h, incubated 6 d, 0-10,000 nM
Method: as §3, with “overexpressing” for “deleted”
Cell culture: LU99 MTAP overexpressing cells were cultured with medium containing 10% fetal bovine serum at 37°C in 5% carbon dioxide. Only cells in the logarithmic growth phase could be used for the test.
Test of inhibitory activity on cell proliferation: The Cell-Titer Glo kit was used to test the proliferation inhibitory activity of the compounds on LU99 MTAP overexpressing cells. The cell concentration was adjusted, rendering that cells were inoculated into a 384-well plate at 40 µL per well and incubated overnight at 37°C and 5% carbon dioxide. 40 nL of the compound was added to each well to reach a final concentration of 0-10,000 nM (starting concentration 10,000 nM, 2.5-fold dilution, 10 points), and the cell plate with 0.2% DMSO content was incubated at 37°C and 5% carbon dioxide for 6 d. 40 µL of Cell-Titer Glo reagent was added to test cell viability.

| Compound | IC50 [1] | IC50 (HCT-116 wild-type cells) | IC50 [2] | IC50 [3] |
| --- | --- | --- | --- | --- |
| CN(C(=O)c1ccc2nc(N)c3c(c2c1)CCO3)C1COC(C)(C)c2cc(C(F)(F)F)ccc21 (stereo not drawn) [Example 4, 4-Amino-N-(1,1-dimethyl-7-(trifluoromethyl)isochroman-4-yl)-N-methyl-1,2-dihydrofuro[2,3-c]quinoline-8-carboxamide] | 1090 nM | 8140 nM | 2260 nM | 3270 nM |
| CN(C(=O)c1cc2c3c(c(N)nc2cn1)COC3)C1COC(C)(C)c2cc(C(F)(F)F)ccc21 (stereo not drawn) [Example 5, 4-Amino-N-(1,1-dimethyl-7-(trifluoromethyl)isochroman-4-yl)-N-methyl-1,3-dihydrofuro[3,4-c][1,7]naphthyridine-8-carboxamide] | 28.2 nM | 7770 nM | 37.1 nM | 4980 nM |
| CN(C(=O)c1ccc2nc(N)c3c(c2c1)COC3)C1COC(C)(C)c2cc(C(F)(F)F)ccc21 (stereo not drawn) [Example 8, 4-Amino-N-(1,1-dimethyl-7-(trifluoromethyl)isochroman-4-yl)-N-methyl-2,3-dihydrofuro[3,4-c]quinoline-8-carboxamide] | 16 nM | 3510 nM | 25.2 nM | 3250 nM |
| CN(C(=O)c1cc2c3c(c(N)nc2cn1)COC3)C1COC(C)(C)c2cc(-c3ccnn3C)ccc21 (stereo not drawn) [Example 9, (4-Amino(1,3-dihydrofuro[3,4-d]pyrido[5,4-b]pyridin-8-yl))-N-[1,1-dimethyl-7-(1-methylpyrazol-5-yl)isochroman-4-yl]-N-methylformamide] | 45.4 nM | > 10000 nM | 85 nM | 9790 nM |
| CN(C(=O)c1ccc2nc(N)c3c(c2c1)COC3)C1COC(C)(C)c2cc(-c3ccnn3C)ccc21 (stereo not drawn) [Example 10, 4-Amino-N-(1,1-dimethyl-7-(1-methyl-1H-pyrazol-5-yl)isochroman-4-yl)-N-methyl-1,3-dihydrofuro[3,4-c]quinoline-8-carboxamide] | 10.1 nM | 2060 nM | 18.3 nM | 3740 nM |
| CC1OCc2c1c(N)nc1ccc(C(=O)N(C)C3COC(C)(C)c4cc(C(F)(F)F)ccc43)cc21 (stereo not drawn) [Example 12, 4-Amino-N-(1,1-dimethyl-7-(trifluoromethyl)isochroman-4-yl)-N,3-dimethyl-1,3-dihydrofuro[3,4-c]quinoline-8-carboxamide] | 21.2 nM | 2610 nM | 32.3 nM | 1990 nM |
| CN(C(=O)c1cc2c(cc1F)nc(N)c1cnn(C)c12)C1COC(C)(C)c2cc(-c3ccnn3C)ccc21 (stereo not drawn) [Example 14, (4-amino-7-fluoro-1-methylpyrazolo[4,5-c]quinolin-8-yl)-N-[1,1-dimethyl-7-(1-methylpyrazol-5-yl)isochroman-4-yl]-N-methylformamide] | 4.1 nM | 286 nM | 5.9 nM | 309 nM |
| CN(C(=O)c1ccc2nc(N)c3cnn(C)c3c2c1)[C@@H]1COC(C)(C)c2cc(N3CCS(=O)(=O)CC3)ccc21 [Example 78, […]] | – | – | 17 nM | 3740 nM |
| CN(C(=O)c1cc2c(cn1)nc(N)c1cnn(C)c12)C1COC(C)(C)c2cc(C(F)(F)F)ncc21 (stereo not drawn) [Example 79, 4-Amino-N-(1,1-dimethyl-7-(trifluoromethyl)-3,4-dihydro-1H-pyrano[4,3-c]pyridin-4-yl)-N,1-dimethyl-1H-pyrazolo[4,3-c][1,7]naphthyridine-8-carboxamide] | – | – | 41.9 nM | 4380 nM |
| CN(C(=O)c1ccc2nc(N)c3cnn(C)c3c2c1)[C@@H]1COC2(CCCC2)c2cc(C(F)(F)F)ccc21 [Example 82, (S)-4-amino-N,1-dimethyl-N-(7'-(trifluoromethyl)spiro[cyclopentane-1,1'-isochroman]-4'-yl)-1H-pyrazolo[4,3-c]quinoline-8-carboxamide] | – | – | 5.9 nM | 523 nM |
| CN(C(=O)c1ccc2nc(N)c3cnn(C)c3c2c1)[C@@H]1COC(C)(C)c2cc(N3CC4CCC(C3)O4)ccc21 [Example 85, N-[(4S)-1,1-dimethyl-7-(8-oxa-3-azabicyclo[3.2.1]octan-3-yl)isochroman-4-yl](4-amino-1-methylpyrazolo[4,5-c]quinolin-8-yl)-N-methylformamide] | – | – | 7.1 nM | 2140 nM |

Further lines, with some results ahead:

| IC50 [1] | IC50 (HCT-116 wild-type cells) | Compound | IC50 [2] | IC50 [3] |
| --- | --- | --- | --- | --- |
| 269 nM | 5950 nM | CN(C(=O)c1ccc2nc(N)c3c(c2c1)OCC3)C1COC(C)(C)c2cc(C(F)(F)F)ccc21 (stereo not drawn) [Example 6, 4-Amino-N-(1,1-dimethyl-7-(trifluoromethyl)isochroman-4-yl)-N-methyl-2,3-dihydrofuro[3,2-c]quinoline-8-carboxamide] | 355 nM | 5940 nM |
| 5 nM | 2520 nM | CN(C(=O)c1ccc2nc(N)c3cnn(C)c3c2c1)C1COC(C)(C)c2cc(-c3cnn(C)c3)ccc21 (stereo not drawn) [Example 7, 4-amino-N-(1,1-dimethyl-7-(1-methyl-1H-pyrazol-4-yl)isochroman-4-yl)-N,1-dimethyl-1H-pyrazolo[4,3-c]quinoline-8-carboxamide] | 3.6 nM | 3100 nM |
| 10.9 nM | 720 nM | CN(C(=O)c1cc2c(cc1F)nc(N)c1cnn(C)c12)C1COC(C)(C)c2cc(Br)ccc21 (stereo not drawn) [Example 13, (4-Amino-7-fluoro-1-methylpyrazolo[4,5-c]quinolin-8-yl)-N-(7-bromo-1,1-dimethylisochroman-4-yl)-N-methylformamide] | 18.9 nM | 1070 nM |
| 13.6 nM | 446 nM | CN(C(=O)c1cc2c(cc1F)nc(N)c1cnn(C)c12)C1COC(C)(C)c2cc(C(F)(F)F)ccc21 (stereo not drawn) [Example 15, 4-Amino-N-(1,1-dimethyl-7-(trifluoromethyl)isochroman-4-yl)-7-fluoro-N,1-dimethyl-1H-pyrazolo[4,3-c]quinoline-8-carboxamide] | 25.9 nM | 795 nM |
| 3.7 nM | 487 nM | CN(C(=O)c1ccc2nc(N)c3cnn(C)c3c2c1)[C@@H]1COC(C)(C)c2cc(C(F)(F)F)ccc21 [Example 16, (S)-4-amino-N-(1,1-dimethyl-7-(trifluoromethyl)isochroman-4-yl)-N,1-dimethyl-1H-pyrazolo[4,3-c]quinoline-8-carboxamide] | 4.7 nM | 682 nM |
| 140 nM | 5550 nM | CN(C(=O)c1ccc2nc(N)c3cnn(C)c3c2c1)[C@H]1COC(C)(C)c2cc(C(F)(F)F)ccc21 [Example 17, (R)-4-amino-N-(1,1-dimethyl-7-(trifluoromethyl)isochroman-4-yl)-N,1-dimethyl-1H-pyrazolo[4,3-c]quinoline-8-carboxamide] | 174 nM | 5220 nM |
